Reference: patent US10399940B2, “Substituted pyrrolidines and methods of use” (AbbVie S.à.r.l., priority 2016, dated 2019)
Like-named read-outs stand apart in the source and are kept apart here.

Target: T1, F508delCFTR (Homo sapiens, UniProt P13569, DEL508-508)
T1 construct: expressed in transfected cells; host or cells: CFBE41o- (human lung derived epithelial cell line), doxycycline-inducible expression
Experiment: Cell Surface Expression-Horse Radish Peroxidase (CSE-HRP) assay
Assay type: cell-based
Settings: CFBE41o-F508delCFTR-HRP cells; for Maximum % activity (with co-corrector): with co-corrector (2 μM); for Maximum % activity (with co-corrector) / Maximum % activity (without co-corrector): normalized to on-plate positive control, highest concentration 20 μM
Outline: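 Surface F508delCFTR-HRP was read by luminol luminescence after 18–24 h compound exposure at 33 °C, without or with 2 μM co-corrector. Doses were eight 3-fold steps from 20 μM, in doxycycline-induced (0.5 μg/mL, 72 h) CFBE41o- cells. % activity was scaled to the on-plate 2 μM positive control minus DMSO; EC50 came from a variable-slope sigmoid fit.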

[1] = test compound without co-corrector, 18-24 hours at 33° C., read-out: EC50 (without co-corrector)
[2] = with co-corrector (2 μM of 3-[(2R,4R)-4-({[1-(2,2-difluoro-1,3-benzodioxol-5-yl)cyclopropyl]carbonyl}amino)-7-methoxy-3,4-dihydro-2H-chromen-2-yl]benzoic acid), read-out: EC50 (with co-corrector)

T1 sequence (P13569 with tags, fused parts or gaps DEL508-508): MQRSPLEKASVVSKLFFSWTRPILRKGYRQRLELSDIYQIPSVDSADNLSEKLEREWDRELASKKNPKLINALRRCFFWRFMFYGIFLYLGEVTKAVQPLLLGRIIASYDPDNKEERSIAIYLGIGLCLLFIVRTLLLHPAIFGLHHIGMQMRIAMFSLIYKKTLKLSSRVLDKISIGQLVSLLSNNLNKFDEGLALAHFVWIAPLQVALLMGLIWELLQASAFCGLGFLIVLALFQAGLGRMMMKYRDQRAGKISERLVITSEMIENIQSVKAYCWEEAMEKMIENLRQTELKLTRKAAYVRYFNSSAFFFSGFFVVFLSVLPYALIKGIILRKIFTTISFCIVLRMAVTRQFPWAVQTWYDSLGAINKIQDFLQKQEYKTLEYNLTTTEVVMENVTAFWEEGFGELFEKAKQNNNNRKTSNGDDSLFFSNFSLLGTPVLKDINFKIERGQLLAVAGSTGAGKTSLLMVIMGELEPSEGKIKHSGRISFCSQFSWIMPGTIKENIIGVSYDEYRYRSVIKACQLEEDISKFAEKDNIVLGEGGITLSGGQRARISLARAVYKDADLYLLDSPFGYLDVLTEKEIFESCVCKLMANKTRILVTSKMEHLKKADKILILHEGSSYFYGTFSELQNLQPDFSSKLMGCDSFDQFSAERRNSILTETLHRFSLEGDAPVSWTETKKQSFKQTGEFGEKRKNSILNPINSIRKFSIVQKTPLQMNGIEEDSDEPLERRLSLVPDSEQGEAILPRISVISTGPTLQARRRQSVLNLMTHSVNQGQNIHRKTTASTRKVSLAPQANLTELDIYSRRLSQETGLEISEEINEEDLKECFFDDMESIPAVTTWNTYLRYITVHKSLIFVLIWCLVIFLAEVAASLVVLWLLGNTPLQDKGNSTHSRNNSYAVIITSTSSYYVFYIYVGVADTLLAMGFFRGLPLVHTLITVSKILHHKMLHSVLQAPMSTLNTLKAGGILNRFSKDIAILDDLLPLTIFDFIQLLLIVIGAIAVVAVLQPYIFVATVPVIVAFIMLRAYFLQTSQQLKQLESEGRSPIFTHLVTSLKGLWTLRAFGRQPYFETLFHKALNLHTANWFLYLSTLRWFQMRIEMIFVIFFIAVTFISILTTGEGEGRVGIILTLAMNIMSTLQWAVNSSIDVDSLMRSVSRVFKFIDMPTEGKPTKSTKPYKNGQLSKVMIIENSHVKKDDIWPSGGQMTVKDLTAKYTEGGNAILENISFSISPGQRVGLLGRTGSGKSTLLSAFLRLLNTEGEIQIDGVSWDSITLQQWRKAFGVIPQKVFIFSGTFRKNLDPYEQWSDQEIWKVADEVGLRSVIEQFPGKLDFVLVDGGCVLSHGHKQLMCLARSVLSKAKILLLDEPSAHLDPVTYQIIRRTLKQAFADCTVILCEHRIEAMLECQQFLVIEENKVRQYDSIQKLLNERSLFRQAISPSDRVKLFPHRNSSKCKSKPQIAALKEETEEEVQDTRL

EC50 [1] [µM] | EC50 [2] [µM] | Maximum % activity (with co-corrector) | Maximum % activity (without co-corrector) | SMILES
1 to 10 | 1 to 10 | +++ (≥350) | ++ (≥100 and <200) | COc1ncc(Br)cc1CO[C@H]1[C@H](C(C)(C)C)[C@@H](C(=O)O)N(C(=O)C2CCCCC2)[C@H]1c1ccccc1F [Example 51, (2S,3R,4S,5S)-4-[(5-bromo-2-methoxypyridin-3-yl)methoxy]-3-tert-butyl-1-(cyclohexanecarbonyl)-5-(2-fluorophenyl)pyrrolidine-2-carboxylic acid]
1 to 10 | 1 to 10 | +++ (≥350) | + (<100) | COc1ncc(-c2ccccc2)cc1CO[C@H]1[C@H](C(C)(C)C)[C@@H](C(=O)O)N(C(=O)C2CCCCC2)[C@H]1c1ccccc1F [Example 52, (2S,3R,4S,5S)-3-tert-butyl-1-(cyclohexanecarbonyl)-5-(2-fluorophenyl)-4-[(2-methoxy-5-phenylpyridin-3-yl)methoxy]pyrrolidine-2-carboxylic acid]
< 1 | < 1 | +++ (≥350) | ++ (≥100 and <200) | COc1ncc(C2CCC2)cc1CO[C@H]1[C@H](C(C)(C)C)[C@@H](C(=O)O)N(C(=O)C2CCCCC2)[C@H]1c1ccccc1 [Example 53, (2S,3R,4S,5S)-3-tert-butyl-4-[(5-cyclobutyl-2-methoxypyridin-3-yl)methoxy]-1-(cyclohexanecarbonyl)-5-phenylpyrrolidine-2-carboxylic acid]
< 1 | < 1 | +++ (≥350) | ++ (≥100 and <200) | COc1ncc(C2CCCC2)cc1CO[C@H]1[C@H](C(C)(C)C)[C@@H](C(=O)O)N(C(=O)C2CCCCC2)[C@H]1c1ccccc1 [Example 54, (2S,3R,4S,5S)-3-tert-butyl-1-(cyclohexanecarbonyl)-4-[(5-cyclopentyl-2-methoxypyridin-3-yl)methoxy]-5-phenylpyrrolidine-2-carboxylic acid]
1 to 10 | 1 to 10 | +++ (≥350) | ++ (≥100 and <200) | COc1ncc(C2CC3CCC2C3)cc1CO[C@H]1[C@H](C(C)(C)C)[C@@H](C(=O)O)N(C(=O)C2CCCCC2)[C@H]1c1ccccc1 (stereo partly drawn) [Example 55, (2S,3R,4S,5S)-4-{[5-(bicyclo[2.2.1]heptan-2-yl)-2-methoxypyridin-3-yl]methoxy}-3-tert-butyl-1-(cyclohexanecarbonyl)-5-phenylpyrrolidine-2-carboxylic acid]
< 1 | < 1 | +++ (≥350) | ++ (≥100 and <200) | COc1ncc(C2CCC2)cc1CO[C@H]1[C@H](C(C)(C)C)[C@@H](C(=O)O)N(C(=O)C2CCCCC2)[C@H]1c1ccccc1F [Example 56, (2S,3R,4S,5S)-3-tert-butyl-4-[(5-cyclobutyl-2-methoxypyridin-3-yl)methoxy]-1-(cyclohexanecarbonyl)-5-(2-fluorophenyl)pyrrolidine-2-carboxylic acid]
1 to 10 | 1 to 10 | +++ (≥350) | ++ (≥100 and <200) | COc1ncc(C2CCCC2)cc1CO[C@H]1[C@H](C(C)(C)C)[C@@H](C(=O)O)N(C(=O)C2CCCCC2)[C@H]1c1ccccc1F [Example 57, (2S,3R,4S,5S)-3-tert-butyl-1-(cyclohexanecarbonyl)-4-[(5-cyclopentyl-2-methoxypyridin-3-yl)methoxy]-5-(2-fluorophenyl)pyrrolidine-2-carboxylic acid]
< 1 | < 1 | +++ (≥350) | ++ (≥100 and <200) | COc1ncc(C2CC3CCC2C3)cc1CO[C@H]1[C@H](C(C)(C)C)[C@@H](C(=O)O)N(C(=O)C2CCCCC2)[C@H]1c1ccccc1F (stereo partly drawn) [Example 58, (2S,3R,4S,5S)-4-{[5-(bicyclo[2.2.1]heptan-2-yl)-2-methoxypyridin-3-yl]methoxy}-3-tert-butyl-1-(cyclohexanecarbonyl)-5-(2-fluorophenyl)pyrrolidine-2-carboxylic acid]
1 to 10 | 1 to 10 | ++ (≥150 and <350) | + (<100) | COc1ncc(N2CCCC2)cc1CO[C@H]1[C@H](C(C)(C)C)[C@@H](C(=O)O)N(C(=O)C2CCCCC2)[C@H]1c1ccccc1F [Example 59, (2S,3R,4S,5S)-3-tert-butyl-1-(cyclohexanecarbonyl)-5-(2-fluorophenyl)-4-{[2-methoxy-5-(pyrrolidin-1-yl)pyridin-3-yl]methoxy}pyrrolidine-2-carboxylic acid]
< 1 | < 1 | +++ (≥350) | ++ (≥100 and <200) | COc1ncc(C(C)(C)C)cc1CO[C@H]1[C@H](C(C)(C)C)[C@@H](C(=O)O)N(C(=O)C2CCCCC2)[C@H]1c1ccccc1 [Example 60, (2S,3R,4S,5S)-3-tert-butyl-4-[(5-tert-butyl-2-methoxypyridin-3-yl)methoxy]-1-(cyclohexanecarbonyl)-5-phenylpyrrolidine-2-carboxylic acid]
< 1 | < 1 | +++ (≥350) | +++ (≥200) | COc1ncc(C(C)(C)C)cc1CO[C@H]1[C@H](C(C)(C)C)[C@@H](C(=O)O)N(C(=O)[C@@H]2CCC[C@@H](OC)C2)[C@H]1c1ccccc1 [Example 61, (2S,3R,4S,5S)-3-tert-butyl-4-[(5-tert-butyl-2-methoxypyridin-3-yl)methoxy]-1-[(1R,3R)-3-methoxycyclohexane-1-carbonyl]-5-phenylpyrrolidine-2-carboxylic acid]
< 1 | < 1 | +++ (≥350) | ++ (≥100 and <200) | COc1ncc(C(C)(C)C)cc1CO[C@H]1[C@H](C(C)(C)C)[C@@H](C(=O)O)N(C(=O)C2CCCCC2)[C@H]1c1ccccc1F [Example 62, (2S,3R,4S,5S)-3-tert-butyl-4-[(5-tert-butyl-2-methoxypyridin-3-yl)methoxy]-1-(cyclohexanecarbonyl)-5-(2-fluorophenyl)pyrrolidine-2-carboxylic acid]
1 to 10 | 1 to 10 | +++ (≥350) | ++ (≥100 and <200) | COc1ncc(C(C)(C)C)cc1CO[C@H]1[C@H](C(C)(C)C)[C@@H](C(=O)O)N(C(=O)OC(C)C)[C@H]1c1ccccc1 [Example 63, (2S,3R,4S,5S)-3-tert-butyl-4-[(5-tert-butyl-2-methoxypyridin-3-yl)methoxy]-5-phenyl-1-{[(propan-2-yl)oxy]carbonyl}pyrrolidine-2-carboxylic acid]
1 to 10 | 1 to 10 | +++ (≥350) | ++ (≥100 and <200) | COc1ncc(C(F)(F)F)cc1CO[C@H]1[C@H](C(C)(C)C)[C@@H](C(=O)O)N(C(=O)OC(C)C)[C@H]1c1ccccc1 [Example 64, (2S,3R,4S,5S)-3-tert-butyl-4-{[2-methoxy-5-(trifluoromethyl)pyridin-3-yl]methoxy}-5-phenyl-1-{[(propan-2-yl)oxy]carbonyl}pyrrolidine-2-carboxylic acid]
< 1 | < 1 | +++ (≥350) | + (<100) | COc1ncc(-c2ccc(C)cc2F)cc1CO[C@H]1[C@H](C(C)(C)C)[C@@H](C(=O)O)N(C(=O)OC(C)C)[C@H]1c1ccccc1 [Example 65, (2S,3R,4S,5S)-3-tert-butyl-4-{[5-(2-fluoro-4-methylphenyl)-2-methoxypyridin-3-yl]methoxy}-5-phenyl-1-{[(propan-2-yl)oxy]carbonyl}pyrrolidine-2-carboxylic acid]
< 1 | 1 to 10 | +++ (≥350) | + (<100) | COc1ncc(-c2ccccc2F)cc1CO[C@H]1[C@H](C(C)(C)C)[C@@H](C(=O)O)N(C(=O)OC(C)C)[C@H]1c1ccccc1 [Example 66, (2S,3R,4S,5S)-3-tert-butyl-4-{[5-(2-fluorophenyl)-2-methoxypyridin-3-yl]methoxy}-5-phenyl-1-{[(propan-2-yl)oxy]carbonyl}pyrrolidine-2-carboxylic acid]
< 1 | < 1 | +++ (≥350) | + (<100) | COc1ncc(-c2ccc(F)cc2C)cc1CO[C@H]1[C@H](C(C)(C)C)[C@@H](C(=O)O)N(C(=O)OC(C)C)[C@H]1c1ccccc1 [Example 67, (2S,3R,4S,5S)-3-tert-butyl-4-{[5-(4-fluoro-2-methylphenyl)-2-methoxypyridin-3-yl]methoxy}-5-phenyl-1-{[(propan-2-yl)oxy]carbonyl}pyrrolidine-2-carboxylic acid]
